From patent US10858684B2, “Mutant microorganisms resistant to lactose killing” (Inbiose N.V., priority 2014, dated 2020)
Where two headings read alike, the source gives them in different places.

Test system: E. coli lactose permease expression cassette mutant strains
Experiment: Chloramphenicol resistance / MIC of strains with lactose permease translationally coupled to chloramphenicol resistance gene
Type: cell-based, Escherichia coli
Details: for MIC: Escherichia coli
Excerpt: Two strains were constructed in which lactose permease was knockout out from the genome. In both strains a pSC101 plasmid containing a kanamycin resistance gene was transformed, with the difference that one of the plasmids contained a constitutively expressed lactose permease as described in Example 1 and 2, resulting in a reference strain MG1655ΔlacY pSC101_kan and the lacY_cat translational coupled strain MG1655ΔlacY pSC101_kan_lacYsynthetic_cat as described in Example 4 and FIG. 5. Both strains were grown in a minimal medium as described above at different chloramphenicol concentrations (between 0 and 30 mg/l).
This method is however limited by the expression of the beta galactosidase gene which becomes the rate limiting step for growth. Therefore, the expression of the lactose permease gene was measured via the above described translational coupling system described above. The minimal inhibition concentration (MIC) for chloramphenicol is indicative for the expression of the lactose permease gene and this was determined for each of the cassettes. The lowest MIC that still resulted into the same growth rate compared to the wild type was used as an indicator for the expression of the wild type lactose permease expression.

O=C(N[C@H](CO)[C@H](O)c1ccc([N+](=O)[O-])cc1)C(Cl)Cl [chloramphenicol]
MIC (read-out: minimal inhibition concentration (MIC), cassettes with the lowest MIC that have the same growth rate as the wild type strain): ~20 µg/mL
MIC (read-out: minimal inhibition concentration (MIC), mutant strains with a slightly lower growth rate): 15 to 20 µg/mL
MIC (read-out: minimal inhibition concentration (MIC), mutant strains with equal or higher growth rate): 20 to 80 µg/mL
growth inhibition of reference strain MG1655ΔlacY pSC101_kan versus lacY_cat coupled strain (chloramphenicol 0 to 30 mg/l, minimal medium, 48 and 92 hours): inhibited at a lower chloramphenicol concentration than the mutant lacY_cat translational coupled strain
